US12715858B2, “Pyridazinone compounds” (INVENTISBIO CO., LTD., priority 2020, dated 2026)
Converted amounts (≈) assume the structure as drawn. Where two headings read alike, the source gives them in different places.

What was measured:
Assay type in all cases: physicochemical
[1] = Solubility in water and bio-relevant media at 37° C. (HPLC of filtrate, pH of filtrate, XRPD of filter cake); conditions: for solubility at 24 h: read-out: Solubility (mg/mL) 24 h; for XRPD: filter cake obtained at 2 or 24 hours; for PH 0.5 h / PH 2 h / PH 24 h: pH of the filtrate; for solubility at 0.5 h: read-out: Solubility (mg/mL) 0.5 h
Procedure: Solubility of Form I of free acid, Form 1 and Form 2 of potassium salt, and Form A of sodium salt were tested in water and in bio-relevant media of Simulated Intestinal Fluid (SIF), Simulated Gastric Fluid (SGF), Fasted State Simulated Intestinal Fluid (FaSSIF), and Fed State Simulated Intestinal Fluid (FeSSIF) at 37° C. up to 24 hours. About 12 mg of the sample was weighed into sample vials and then 1.5 mL of each media was added to make suspensions respectively. All suspensions were shaken at 37° C. with 200 rpm.

[2] = Physical stability upon grinding and high humidity
Procedure: Physical stability of Form I was evaluated upon grinding and high humidity (RT/92.5% RH for 24 days). For mechanical treatment study, Form I (10 mg) was ground manually for 5 min, and the sample was analyzed by XRPD after grinding for 2 and 5 min, respectively.

[3] = Dynamic Vapor Sorption (DVS); conditions: for hygroscopicity: DVS; for crystal form of solid after the DVS study: XRPD after DVS; for water uptake / weight gain by DVS: at 80% RH (Form I: 0 to 80% RH), 25° C.
Procedure: Dynamic Vapor Sorption (DVS): Moisture sorption/desorption data was collected on a IGASorp DVS. The sample was placed into a tarred sample chamber and weighed automatically. The sample was dried at 50° C. until the % RH was less than 0.3% and cooled to 25° C. Set the instrument parameters as below.

[4] = Solid state stability at 60° C. and 40° C./75% RH for 7 days (HPLC purity, XRPD); conditions: for Purity at Day 7 (Area %) 40° C./75% RH: 7 days at 40° C./75% RH; for Purity at Day 7 (Area %) 40° C./75% RH / Purity at Day 7 (Area %) 60° C.: HPLC; for Purity at Day 7 (Area %) 60° C.: 7 days at 60° C.; for XRPD 40° C./75% RH: crystal form after 7 days at 40° C./75% RH; for XRPD 60° C.: crystal form after 7 days at 60° C.; for Initial Purity (Area %): day 0, HPLC
Procedure: HPLC analysis was performed with an Agilent HPLC 1260 series instrument.
Appropriate amount of free acid Form I, potassium salts Form 1 and Form 2, and sodium salt Form A were placed at 60° C. and 40° C./75% RH for 7 days. At 0 and 7 days, the samples were dissolved in diluent to prepare a solution of 0.5 mg/mL for HPLC purity analysis. Solid samples were analyzed by XRPD to check the crystal form.

[5] = Interconversion study of potassium salt Form 1 and Form 2 (slurry of equal amounts); conditions: slurry in MeOH/EA and acetone/water, RT or 50° C.
Procedure: Interconversion study were performed in MeOH/EA (1/9, RT or 50° C.) and acetone/water (20/1, RT or 50° C.). Equal amounts of Form 1 and Form 2 were slurried in specified solvents at different temperatures for certain time.

[6] = FaSSIF, 37° C., 2 h, LOQ is 0.5 μg/mL
[7] = SGF, 37° C., 2 h, LOQ is 0.5 μg/mL
[8] = SIF, 37° C., 2 h, LOQ is 0.5 μg/mL
[9] = Water, 37° C., LOQ is 0.5 μg/mL
[10] = Water, 37° C., 2 h, LOQ is 0.5 μg/mL
[11] = thermodynamic from solid, FeSSIF, 37° C.

SMILES: Cc1nn(-c2cc(Cl)c(Oc3cc(C(C)C)c(=O)[nH]n3)c(Cl)c2)c(=O)[nH]c1=O [Free acid Form I, 2-(3,5-dichloro-4-((5-isopropyl-6-oxo-1,6-dihydropyridazin-3-yl)oxy)phenyl)-6-methyl-1,2,4-triazine-3,5(2H,4H)-dione]
- solubility at 24 h ([1]; FaSSIF (Fasted State Simulated Intestinal Fluid), thermodynamic from solid, FaSSIF, 37° C.): 0.00052 mg/mL (≈ 1.23 µM)
- Solubility (mg/mL) 0.5 h ([1]; FaSSIF, 37° C., LOQ is 0.5 μg/mL): <LOQ
- Solubility (mg/mL) 2 h [1, 6]: <LOQ
- Solubility (mg/mL) 0.5 h ([1]; SGF, 37° C., LOQ is 0.5 μg/mL): <LOQ
- Solubility (mg/mL) 2 h [1, 7]: <LOQ
- Solubility (mg/mL) 24 h ([1]; SGF, 37° C., LOQ is 0.5 μg/mL): <LOQ
- Solubility (mg/mL) 0.5 h ([1]; SIF, 37° C., LOQ is 0.5 μg/mL): <LOQ
- Solubility (mg/mL) 2 h [1, 8]: <LOQ
- Solubility (mg/mL) 24 h ([1]; SIF, 37° C., LOQ is 0.5 μg/mL): <LOQ
- Solubility (mg/mL) 0.5 h [1, 9]: <LOQ
- Solubility (mg/mL) 2 h [1, 10]: <LOQ
- Solubility (mg/mL) 24 h [1, 9]: <LOQ
- XRPD ([1]; FaSSIF): unchanged
- XRPD ([1]; SGF): unchanged
- XRPD ([1]; SIF): unchanged
- XRPD ([1]; Water): unchanged
- PH 0.5 h ([1]; FaSSIF): 6.72
- PH 2 h ([1]; FaSSIF, 2 h): 6.60
- PH 24 h ([1]; FaSSIF): 6.74
- PH 0.5 h ([1]; FeSSIF): 4.91
- PH 2 h ([1]; FeSSIF, 2 h): 4.86
- PH 24 h ([1]; FeSSIF): 5.00
- PH 0.5 h ([1]; SGF): 1.17
- PH 2 h ([1]; SGF, 2 h): 1.19
- PH 24 h ([1]; SGF): 1.16
- PH 0.5 h ([1]; SIF): 6.89
- PH 2 h ([1]; SIF, 2 h): 6.86
- PH 24 h ([1]; SIF): 6.79
- PH 0.5 h ([1]; Water): 6.48
- PH 2 h ([1]; Water, 2 h): 6.59
- PH 24 h ([1]; Water): 6.44
- solubility at 0.5 h [1, 11]: 0.00056 mg/mL (≈ 1.32 µM)
- solubility at 2 h ([1]; thermodynamic from solid, FeSSIF, 37° C., 2 h, read-out: Solubility (mg/mL) 2 h): 0.001 mg/mL (≈ 2.36 µM)
- solubility at 24 h [1, 11]: 0.0011 mg/mL (≈ 2.59 µM)
- form change upon high humidity ([2]; RT/92.5% RH for 24 days): no form change was observed
- crystal form (XRPD) after grinding ([2]; ground manually, up to 5 min): remained unchanged
- crystallinity after grinding ([2]; ground manually, up to 5 min): significantly decreased
- hygroscopicity [3]: slightly hygroscopic
- crystal form of solid after the DVS study [3]: remained unchanged
- water uptake / weight gain by DVS [3]: 0.9%
- Purity at Day 7 (Area %) 40° C./75% RH [4]: 96.42 Area %
- Purity at Day 7 (Area %) 60° C. [4]: 96.47 Area %
- XRPD 40° C./75% RH [4]: Unchanged
- XRPD 60° C. [4]: Unchanged
- Initial Purity (Area %) [4]: 96.45 Area %

SMILES: Cc1nn(-c2cc(Cl)c(Oc3cc(C(C)C)c(=O)[nH]n3)c(Cl)c2)c(=O)[n-]c1=O.[K+] [Potassium salt Form 2]
- solubility at 0.5 h ([1]; FaSSIF (Fasted State Simulated Intestinal Fluid), 37 °C, fassif, thermodynamic from solid, FaSSIF, 37° C., LOQ is 0.5 μg/mL): 0.0011 mg/mL
- Solubility (mg/mL) 2 h [1, 6]: 0.015 mg/mL
- Solubility (mg/mL) 24 h ([1]; FaSSIF, 37° C.): 0.0070 mg/mL
- Solubility (mg/mL) 0.5 h ([1]; FeSSIF, 37° C.): 0.0041 mg/mL
- Solubility (mg/mL) 2 h ([1]; FeSSIF, 37° C., 2 h): 0.013 mg/mL
- Solubility (mg/mL) 24 h ([1]; FeSSIF, 37° C.): 0.022 mg/mL
- Solubility (mg/mL) 0.5 h ([1]; SGF, 37° C., LOQ is 0.5 μg/mL): <LOQ
- Solubility (mg/mL) 2 h [1, 7]: <LOQ
- Solubility (mg/mL) 24 h ([1]; SGF, 37° C., LOQ is 0.5 μg/mL): <LOQ
- Solubility (mg/mL) 0.5 h ([1]; SIF, 37° C., LOQ is 0.5 μg/mL): <LOQ
- Solubility (mg/mL) 2 h [1, 8]: <LOQ
- Solubility (mg/mL) 24 h ([1]; SIF, 37° C., LOQ is 0.5 μg/mL): <LOQ
- Solubility (mg/mL) 0.5 h [1, 9]: 4.63 mg/mL
- Solubility (mg/mL) 2 h [1, 10]: 6.69 mg/mL
- Solubility (mg/mL) 24 h [1, 9]: 6.71 mg/mL
- XRPD ([1]; FaSSIF): Free acid
- XRPD ([1]; FeSSIF): Free acid
- XRPD ([1]; SGF): Free acid
- XRPD ([1]; SIF): Free acid
- XRPD ([1]; Water): Free acid
- PH 0.5 h ([1]; FaSSIF): 7.04
- PH 2 h ([1]; FaSSIF, 2 h): 7.49
- PH 24 h ([1]; FaSSIF): 7.90
- PH 0.5 h ([1]; FeSSIF): 5.09
- PH 2 h ([1]; FeSSIF, 2 h): 5.24
- PH 24 h ([1]; FeSSIF): 5.17
- PH 0.5 h ([1]; SGF): 1.35
- PH 2 h ([1]; SGF, 2 h): 1.25
- PH 24 h ([1]; SGF): 1.25
- PH 0.5 h ([1]; SIF): 7.43
- PH 2 h ([1]; SIF, 2 h): 7.51
- PH 24 h ([1]; SIF): 7.46
- PH 0.5 h ([1]; Water): 10.49
- PH 2 h ([1]; Water, 2 h): 10.62
- PH 24 h ([1]; Water): 10.42
- DVS Water % at 80% RH ([3]; 80% RH, forms of potassium salt of Compound 1): 1.6%
- hygroscopicity [3]: slight hygroscopic
- crystal form of solid after the DVS study [3]: remained unchanged
- water uptake / weight gain by DVS [3]: 1.6%
- relative stability of Form 1 and Form 2 [5]: more stable in aqueous solution
- chemical and physical stability ([4]; 40° C./75% RH and 60° C. for 7 days): chemically and physically stable
- Purity at Day 7 (Area %) 40° C./75% RH [4]: 98.97 Area %
- Purity at Day 7 (Area %) 60° C. [4]: 99.07 Area %
- XRPD 40° C./75% RH [4]: Unchanged
- XRPD 60° C. [4]: Unchanged
- Initial Purity (Area %) [4]: 99.04 Area %
